Reference: patent publication US20240238223A1 (Shenyang Pharmaceutical University, priority 2023, published 2024)
Where “and” joins values, the source holds several entries; their conditions need not be identical. Identical values can stand only once. Like-named read-outs stand apart in the source and are kept apart here.

Key:
[1] = tested on: paclitaxel-resistant A549/T cells; assay: cells; details: Homo sapiens, A549, 96 h; for inhibition at 5 µM / inhibition at 10 µM / inhibition at 20 µM: read-out: Growth inhibition rate
Description: (§6) After incubation overnight, 100 μL of culture medium supplemented with various concentrations of compounds was added to each well. After incubation for 96 h, 50 μL of methyl thiazolyl tetrazolium (MTT) solution (2 mg/mL) was added to each well and incubated at 37° C. for 4 h. The culture medium was suctioned, and the cells were dissolved in 200 μL of DMSO. The absorbance at 570 nm was measured by using a microplate reader. The growth inhibition rate GI50 was calculated by GraphPadPrism5.

[2] = tested on: paclitaxel-resistant A549/T cells; details: for GI50: A549/T cells, salts (Table 3)
Description: (§7) Adherent cells: PC-3, HepG-2, HCT-116, and Hela cells were inoculated into a 96-well plate at a density of 1,000-3,500 cells/mL. After incubation overnight, 100 μL of culture medium supplemented with various concentrations of compounds was added to each well. After incubation for 96 h, 50 μL of methyl thiazolyl tetrazolium (MTT) solution (2 mg/mL) was added to each well and incubated at 37° C. for 4 h. The culture medium was suctioned, and the cells were dissolved in 200 μL of DMSO. The absorbance at 570 nm was measured by using a microplate reader. The growth inhibition rate GI50 was calculated by GraphPadPrism5.
(§8) The cells used in the assay included human NSCLC A549 cells and paclitaxel-resistant A549/T cells, human breast cancer MCF-7 cells and paclitaxel-resistant MCF-7/T cells, human breast cancer MX-1 cells and paclitaxel-resistant MX-1/T cells, and human oral epidermoid carcinoma KB cells and vincristine-resistant KB/V cells.
(§9) A549 and A549/T cells were cultured in 1640 Medium, while MX-1, MX-1/T, MCF-7, MCF-7/T, KB, and KB/V cells were cultured in DMEM supplemented with 10% inactivated FBS, 10 mmol/L L-glutamine, 100 U/mL penicillin, and 100 μg/mL streptomycin in a 37° C., 5% CO2 and saturated humidity incubator.
(§10) Cell lines used in the assay included human NSCLC A549 cells and paclitaxel-resistant A549/T cells.

[3] = tested on: A549 cells; assay: Growth inhibition of parental NSCLC cells; assay type: cell-based, human
Description: (§1) The growth inhibition rate GI50 was calculated by GraphPadPrism5.

[4] = tested on: paclitaxel-resistant MX-1/T cells; assay: Growth inhibition of paclitaxel-resistant breast cancer cells; details: for GI50: Homo sapiens, read-out: GI50 ± SD; for RI: resistance index: ratio of GI50 MX-1/T to MX-1
Description: as §7, §8, §9

[5] = tested on: PC-3; assay: Cell growth inhibition assay, adherent cells, MTT, 96 h; assay type: cell-based; details: Homo sapiens; PC-3, prostatic cancer, 96 h MTT
Description: (§2) Human acute myeloid leukemia cells HL-60, human chronic myeloid leukemia cells K562, human prostate cancer cell line PC-3, human hepatoma cells HepG-2, human colon cancer cells HC-T116, and human cervical cancer cell line Hela were purchased from American Type Culture Collection (ATCC). Human acute myeloid leukemia cells MOLM-13 were purchased from DSMZ-Deutsche Sammlung von Mikroorganismen und Zellkulturen GmbH (Braunschweig Germany).
as §1

[6] = tested on: HepG-2; assay: as above; assay type: cell-based; details: Homo sapiens, HepG2; HepG-2, liver cancer, 96 h MTT
Description: as §2, §1

[7] = tested on: HCT-116; assay: as above; assay type: cell-based; details: Homo sapiens; HCT-116, colorectal cancer, 96 h MTT
Description: as §2, §1

[8] = tested on: Hela; assay: as above; assay type: cell-based; details: Homo sapiens, cervical carcinoma, 96 h MTT
Description: as §2, §1

[9] = tested on: MCF-7 cells; assay: Growth inhibition of parental breast cancer cells; assay type: cell-based; details: Homo sapiens, MCF7; MCF-7 parental cells
Description: as §1

[10] = tested on: MX-1 cells; assay: Growth inhibition of parental breast cancer cells; assay type: cell-based; details: Homo sapiens, MX1; MX-1 parental cells
Description: as §1

[11] = tested on: A549/T xenograft; assay: A549/T xenograft model in BALB/c-nu mice; assay type: in vivo; details: i.p. every other day, 10 times, colchicine 0.5 mg/kg, paclitaxel 10 mg/kg, methylaminocolchicine 0.25 and 0.5 mg/kg
Description: Male BALB/c-nu mice (aged 6-8 weeks and weighing 18-20 g) were purchased from Beijing HFK Bioscience Co., Ltd. A549/T cells in logarithmic growth phase were mixed with Matrigel, and inoculated subcutaneously in the right armpit of a BALB/c-nu mouse at a density of 5×10^6 cells/mouse.
The mental state of the mice was monitored every day. The mouse weight was measured and recorded, and mouse weight change curves were plotted based on the average body weight of each group. The long and short diameters of tumors were measured every two days, and the tumor volume was calculated according to the tumor volume calculation formula: tumor volume=(long diameter×short diameter^2)/2. Tumor growth curves were plotted (FIG. 1A).

[12] = tested on: vincristine-resistant KB/V cells; assay: Growth inhibition of vincristine-resistant oral epidermoid carcinoma cells; details: for GI50: Homo sapiens, KBV, read-out: GI50 ± SD; for RI: resistance index: ratio of GI50 KB/V to KB
Description: as §7, §8, §9

[13] = tested on: KB cells; assay: Growth inhibition of parental oral epidermoid carcinoma cells; assay type: cell-based; details: Homo sapiens
Description: as §1

[14] = tested on: HL-60; assay: Cell growth inhibition assay, suspension cells, Trypan Blue counting, 72 h; assay type: cell-based; details: Homo sapiens, HL-60, leukemia
Source text: as §2
(§3) Suspension cells: Leukemia cells HL-60, MOLM-13, and K562 were inoculated into a 24-well plate at a density of 0.5-1×10^5 cells/mL. Subsequently, the cells were incubated with different concentrations of compounds in an incubator for 72 h. Then, the culture plate was removed from the incubator. In each well, the cells and the compounds were mixed well; 50 μL of cell suspension was transferred and mixed well with 50 μL of Trypan Blue (0.4%), followed by counting microscopically.
(§4) Cell growth inhibition rate was calculated according to the following formula. The growth inhibition rate GI50 (the concentration that results in inhibiting cell growth by 50%) was calculated by GraphPadPrism5.
(§5) Growth inhibition rate=(1−Cell count of the drug group/Cell count of the control group)×100%.

[15] = tested on: MOLM-13; assay: as above; assay type: cell-based; details: Homo sapiens, MOLM-13, leukemia
Source text: as §2, §3, §4, §5

[16] = tested on: K562; assay: as above; assay type: cell-based; details: Homo sapiens, K562, leukemia
Source text: as §2, §3, §4, §5

[17] = tested on: paclitaxel-resistant MCF-7/T cells; assay: Growth inhibition of paclitaxel-resistant breast cancer cells; assay type: cell-based, human; details: for GI50: Homo sapiens, MCF7, MCF-7/T paclitaxel-resistant cells; for RI: resistance index: ratio of GI50 MCF-7/T to MCF-7
Description: as §1

[18] = tested on: paclitaxel-resistant A549/T cells; assay: cells; details: Homo sapiens, A549, read-out: GI50 ± SD
Description: as §7, §8, §9, §10

[19] = tested on: paclitaxel-resistant A549/T cells; details: 96 h
Description: as §6

[20] = target: T1, Porcine brain tubulin (Sus scrofa, UniProt P02550+P02554); set-up: In vitro tubulin polymerization assay was carried out using purified tubulin; purchased Cytoskeleton, Denver, CO BK011P; host or cells: porcine brain (tissue-purified); details: It has been known; cited from earlier work
T1 sequence (P02550 whole entry): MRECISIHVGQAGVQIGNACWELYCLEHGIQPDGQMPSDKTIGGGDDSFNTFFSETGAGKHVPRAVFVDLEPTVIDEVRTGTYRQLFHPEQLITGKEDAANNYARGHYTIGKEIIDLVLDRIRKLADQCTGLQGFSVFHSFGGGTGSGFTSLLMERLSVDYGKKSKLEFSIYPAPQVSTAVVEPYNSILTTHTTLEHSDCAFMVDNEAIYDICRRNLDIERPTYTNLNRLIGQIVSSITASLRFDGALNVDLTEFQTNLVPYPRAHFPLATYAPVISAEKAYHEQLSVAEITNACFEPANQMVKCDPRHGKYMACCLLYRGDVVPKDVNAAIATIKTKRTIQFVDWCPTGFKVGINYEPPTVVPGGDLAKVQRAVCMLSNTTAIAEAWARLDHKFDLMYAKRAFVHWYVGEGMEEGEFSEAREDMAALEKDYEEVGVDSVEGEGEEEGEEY
T1 sequence (P02554 whole entry): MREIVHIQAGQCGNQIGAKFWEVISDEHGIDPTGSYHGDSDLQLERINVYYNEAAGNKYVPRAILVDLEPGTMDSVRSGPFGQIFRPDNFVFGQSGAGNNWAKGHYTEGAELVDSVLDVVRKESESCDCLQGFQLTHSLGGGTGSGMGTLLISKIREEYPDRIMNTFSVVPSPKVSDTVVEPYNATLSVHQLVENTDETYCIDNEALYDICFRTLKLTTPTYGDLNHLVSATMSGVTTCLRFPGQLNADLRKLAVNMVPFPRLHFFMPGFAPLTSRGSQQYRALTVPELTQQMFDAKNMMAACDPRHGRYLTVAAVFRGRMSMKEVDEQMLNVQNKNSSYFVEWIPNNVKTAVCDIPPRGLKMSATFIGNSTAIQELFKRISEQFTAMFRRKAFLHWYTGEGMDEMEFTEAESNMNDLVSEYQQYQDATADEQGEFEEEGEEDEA

[21] = target: T1, Porcine brain tubulin
Description: In vitro tubulin polymerization assay was carried out using purified tubulin. BK011P-Tubulin Polymerization Assay Kit (Cytoskeleton, Denver, CO) was used. Porcine brain tubulin solution (2 mg/mL) was prepared by using tubulin buffer (80 mM PIPES, 2.0 mM MgCl2, 0.5 mM EGTA, 15% v/v glycerol, and 1 mM GTP). […] Fluorescence intensities (ex-360 nm, em-450 nm) was measured and monitored every 1 min, for consecutive 80 min (FIG. 2).

[22] = ratio of GI50 A549/T to A549, salts (Table 3)
[23] = A549 cells, salts (Table 3), read-out: GI50
[24] = Homo sapiens, A549 parental cells, read-out: GI50 ± SD

Row | Compound | inhibition at 5 µM [1] | inhibition at 10 µM [1] | inhibition at 20 µM [1] | GI50 [2] | RI: resistance index [2, 22] | GI50 [3, 23] | GI50 [4] | GI50 [9] | GI50 [10] | GI50 [12] | GI50 [13] | GI50 [17] | GI50 [18] | GI50 [3, 24] | other results
1 | CC1(C)CCC(CN2CCN(c3ccc(C(=O)NS(=O)(=O)c4ccc(NCC5CCOCC5)c([N+](=O)[O-])c4)c(Oc4cnc5[nH]ccc5c4)c3)CC2)=C(c2ccc(Cl)cc2)C1 [Venetoclax] | 23.2% | 57.7% | 95.5% |  |  |  |  |  |  |  |  |  |  |  | 
2 | Methylaminocolchicine Mesylate |  |  |  | 29.9 nM | 1.76 | 17 nM |  |  |  |  |  |  |  |  | 
3 | COc1cc2c(c(OC)c1OC)-c1ccc(OC)c(=O)cc1[C@@H](NC(C)=O)CC2 [Colchicine] |  |  |  |  |  |  | 838.2 ± 2.62 nM | 51.4 ± 10.8 nM | 57.9 ± 7.55 nM | 88.8 ± 9.83 nM | 10.9 ± 1.26 nM | 251 ± 61 nM | 1083 ± 2.37 nM | 38.4 ± 3.37 nM | GI50 [5]: 90.5 ± 25.2 nM; GI50 [6]: 57.7 ± 5.41 nM; GI50 [7]: 79.3 ± 6.59 nM; GI50 [8]: 124 ± 8.41 nM; Tumor growth inhibition [11]: neither paclitaxel nor colchicine can significantly inhibit the tumor growth; GI50 [14]: 9.3 ± 3.7 nM; GI50 [15]: 11.6 ± 1.21 nM; GI50 [16]: 10.7 ± 1.5 nM
4 | CNc1ccc2c(cc1=O)C(NC(C)=O)CCc1cc(OC)c(OC)c(OC)c1-2 (stereo not drawn) [Methylaminocolchicine] |  |  |  |  |  |  | 11.4 ± 1.2 nM | 20.7 ± 2.8 nM | 11.2 ± 1.17 nM | 36.3 ± 6.77 nM | 6.41 ± 2.39 nM | 47.6 ± 2.82 nM | 23.64 ± 0.06 nM | 6.88 ± 0.67 nM | GI50 [5]: 9.19 ± 0.81 nM; GI50 [6]: 7.05 ± 1.74 nM; GI50 [7]: 9.16 ± 4.19 nM; GI50 [8]: 9.97 ± 2.34 nM; inhibition at 0.02 µM ([1]; read-out: Growth inhibition rate, A549/T, 96 h, methylaminocolchicine alone 20 nM): 1%; inhibition at 0.08 µM ([1]; read-out: Growth inhibition rate, A549/T, 96 h, methylaminocolchicine alone 80 nM): 34.5%; Growth inhibition rate ([19]; methylaminocolchicine alone 40 nM): 3.08% and 0.97%; Growth inhibition rate ([19]; methylaminocolchicine alone 80 nM): 42.77% and 37.66% and 38.92%; GI50 [14]: 3.5 ± 0.14 nM; GI50 [15]: 4.87 ± 0.86 nM; GI50 [16]: 5 ± 0.32 nM
5 | CN(C)CC#Cc1ccc(OCCCc2sc(N3CCc4cccc(C(=O)Nc5nc6ccccc6s5)c4C3)nc2C(=O)O)c(F)c1 [A1155463] | 6.97% | 12.1% | 23.7% |  |  |  |  |  |  |  |  |  |  |  | 
6 | Methylaminocolchicine Tartrate |  |  |  | 32.4 nM | 1.99 | 16.2 nM |  |  |  |  |  |  |  |  | 
7 | CC[C@]1(O)C[C@H]2CN(CCc3c([nH]c4ccccc34)[C@@](C(=O)OC)(c3cc4c(cc3OC)N(C=O)[C@H]3[C@@](O)(C(=O)OC)[C@H](OC(C)=O)[C@]5(CC)C=CCN6CC[C@]43[C@@H]65)C2)C1 [Vincristine] |  |  |  |  |  |  | 262 ± 6.8 nM | 159 ± 44.6 nM | 16.7 ± 6.87 nM | 268 ± 13.1 nM | 2.69 ± 1.53 nM | 576 ± 80.7 nM | 1130 ± 12.7 nM | 45.6 ± 3.68 nM | RI: resistance index [4]: 14.47; Effect on tubulin polymerization (known action of control drugs) [20]: inhibits it; Effect on tubulin polymerization [21]: Like vincristine, colchicine could inhibit tubulin polymerization; RI: resistance index [12]: 99.68; RI: resistance index [17]: 3.63; RI: resistance index ([2]; ratio of GI50 A549/T to A549): 24.7
8 | CC1(C)CCC(c2ccc(Cl)cc2)=C(CN2CCN(c3ccc(C(=O)NS(=O)(=O)c4ccc(N[C@H](CCN5CCOCC5)CSc5ccccc5)c(S(=O)(=O)C(F)(F)F)c4)cc3)CC2)C1 [Navitoclax] | 2.84% | 67.7% | 96.3% |  |  |  |  |  |  |  |  |  |  |  | 
9 | Methylaminocolchicine Hydrochloride |  |  |  | 63.7 nM | 3.77 | 16.9 nM |  |  |  |  |  |  |  |  | 
10 | CC(=O)O[C@H]1C(=O)[C@@]2(C)[C@H]([C@H](OC(=O)c3ccccc3)[C@]3(O)C[C@H](OC(=O)[C@H](O)[C@@H](NC(=O)c4ccccc4)c4ccccc4)C(C)=C1C3(C)C)[C@]1(OC(C)=O)CO[C@@H]1C[C@@H]2O [Paclitaxel] |  |  |  |  |  |  | 1130 ± 228 nM | 58 ± 9.62 nM | 67.3 ± 5.92 nM | 604 ± 28.6 nM | 3.52 ± 0.95 nM | 941 ± 265 nM | 4760 ± 75 nM | 23.1 ± 1.39 nM | RI: resistance index [4]: 16.73; Tumor growth inhibition [11]: neither paclitaxel nor colchicine can significantly inhibit the tumor growth; Effect on tubulin polymerization (known action of control drugs) [20]: promotes tubulin polymerization; RI: resistance index [12]: 171.48; RI: resistance index [17]: 16.24; RI: resistance index ([2]; ratio of GI50 A549/T to A549): 209.45
11 | Cc1c(-c2ccc(N3CCc4cccc(C(=O)Nc5nc6ccccc6s5)c4C3)nc2C(=O)O)cnn1CC12CC3CC(CC(C3)C1)C2 [A1331852] | 5.17% | 11.2% | 17.5% |  |  |  |  |  |  |  |  |  |  |  | 
12 | Methylaminocolchicine p-Toluenesulfonate |  |  |  | 72.7 nM | 3.98 | 18.3 nM |  |  |  |  |  |  |  |  | 
13 | Methylaminocolchicine Sulfate |  |  |  | 42.4 nM | 1.94 | 21.9 nM |  |  |  |  |  |  |  |  | 
